According to ChEMBL document CHEMBL1201862, “PubChem BioAssay data set” (2004):
Active and inactive are the calls of the source.

Tests used:
Protein skinhead-1 = biological target: T1, Protein skinhead-1 (Caenorhabditis elegans, UniProt P34707); type: functional
T1 sequence (P34707 whole entry): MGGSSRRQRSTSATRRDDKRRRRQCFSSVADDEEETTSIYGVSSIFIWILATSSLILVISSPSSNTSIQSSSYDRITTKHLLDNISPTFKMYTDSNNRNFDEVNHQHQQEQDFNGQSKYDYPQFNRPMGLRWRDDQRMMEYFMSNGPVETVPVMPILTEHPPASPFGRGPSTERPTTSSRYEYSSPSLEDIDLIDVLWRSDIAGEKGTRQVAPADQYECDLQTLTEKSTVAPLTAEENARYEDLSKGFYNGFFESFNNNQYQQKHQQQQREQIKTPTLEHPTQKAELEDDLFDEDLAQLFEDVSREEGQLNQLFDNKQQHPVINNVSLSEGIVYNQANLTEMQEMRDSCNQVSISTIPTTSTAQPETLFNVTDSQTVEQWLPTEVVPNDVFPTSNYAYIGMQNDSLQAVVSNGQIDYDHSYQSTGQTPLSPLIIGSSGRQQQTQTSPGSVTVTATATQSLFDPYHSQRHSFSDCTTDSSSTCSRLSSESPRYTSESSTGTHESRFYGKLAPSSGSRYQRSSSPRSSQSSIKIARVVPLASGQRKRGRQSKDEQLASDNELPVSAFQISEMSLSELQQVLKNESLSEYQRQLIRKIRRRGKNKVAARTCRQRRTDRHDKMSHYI

ORF 73 = biological target: T2, ORF 73 (Human herpesvirus 8, UniProt O40947); experiment: inhibitors of C-LANA binding to LBS DNA, dose response, biochemical, fluorescence polarization, cherry-picked samples (AID 504725); set-up: species or system Human gammaherpesvirus 8;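 note: fluorescence polarization of a labeled DNA duplex reporting LANA DNA binding; potency is for inhibitors that block LANA binding to the DNA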
T2 sequence (O40947 whole entry): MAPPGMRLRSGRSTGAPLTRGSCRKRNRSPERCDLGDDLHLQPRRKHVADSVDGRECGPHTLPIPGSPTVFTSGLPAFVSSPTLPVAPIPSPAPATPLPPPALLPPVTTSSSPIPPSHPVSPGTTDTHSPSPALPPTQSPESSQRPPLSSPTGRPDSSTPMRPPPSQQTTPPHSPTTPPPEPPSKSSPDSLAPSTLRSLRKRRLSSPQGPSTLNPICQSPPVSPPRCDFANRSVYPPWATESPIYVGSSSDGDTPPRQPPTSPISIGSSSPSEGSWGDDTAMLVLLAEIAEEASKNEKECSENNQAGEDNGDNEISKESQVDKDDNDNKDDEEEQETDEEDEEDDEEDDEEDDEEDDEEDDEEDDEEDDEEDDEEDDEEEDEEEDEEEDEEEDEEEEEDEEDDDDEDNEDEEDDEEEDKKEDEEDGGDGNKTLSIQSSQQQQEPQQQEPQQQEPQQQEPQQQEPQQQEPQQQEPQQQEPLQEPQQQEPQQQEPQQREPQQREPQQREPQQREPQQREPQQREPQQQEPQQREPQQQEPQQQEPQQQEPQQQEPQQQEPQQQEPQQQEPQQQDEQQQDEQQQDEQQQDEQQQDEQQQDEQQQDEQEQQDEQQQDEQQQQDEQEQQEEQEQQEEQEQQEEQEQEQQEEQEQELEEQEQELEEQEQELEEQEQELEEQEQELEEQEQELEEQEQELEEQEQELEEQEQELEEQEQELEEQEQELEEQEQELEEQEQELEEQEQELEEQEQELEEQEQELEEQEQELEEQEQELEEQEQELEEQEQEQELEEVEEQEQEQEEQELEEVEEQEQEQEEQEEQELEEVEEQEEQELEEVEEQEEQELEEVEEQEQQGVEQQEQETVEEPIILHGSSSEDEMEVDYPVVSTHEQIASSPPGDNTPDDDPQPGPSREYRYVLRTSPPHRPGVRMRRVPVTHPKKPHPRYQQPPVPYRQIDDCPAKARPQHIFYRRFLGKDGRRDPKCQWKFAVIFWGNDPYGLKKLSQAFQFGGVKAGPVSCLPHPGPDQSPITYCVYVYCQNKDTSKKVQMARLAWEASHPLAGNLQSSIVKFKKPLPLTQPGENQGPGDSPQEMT

[1] = cytotoxicity in HEK-293T cells, dose response, cytotoxicity control for TCR NF-kB inhibitor project, luminescence, T-cell screen hits (AID 489026); type: functional, cell-based;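 note: cells exposed to compound about 14 hours before the viability readout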
[2] = biological target: T3, Endoribonuclease toxin MazF (Escherichia coli K-12, UniProt P0AE70); experiment: MazF toxin RNase activators, dose response, biochemical, fluorescence, single-stranded RNA substrate, uHTS hits (AID 588481); type: functional
T3 sequence (P0AE70 whole entry): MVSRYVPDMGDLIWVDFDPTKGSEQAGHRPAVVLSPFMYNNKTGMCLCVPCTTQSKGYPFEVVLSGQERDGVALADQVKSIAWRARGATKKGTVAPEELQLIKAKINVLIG

[3] = biological target: T3, Endoribonuclease toxin MazF; experiment: fluorescent RNA oligo signal without MazF, dose response, counter-screen for MazEF activator project, biochemical, fluorescence, single-stranded RNase substrate (AID 588502); type: functional
[4] = THP-1 cell cytotoxicity, dose response, cytotoxicity control for non-replicating M. tuberculosis project (AID 489025); type: functional
[5] = Vero E6 cell cytotoxicity, dose response, cytotoxicity control for non-replicating M. tuberculosis project, secondary assay (AID 492998); type: functional, VeroE6; conditions: Vero C1008
cells = type: functional
[6] = biological target: T4, E3 ubiquitin-protein ligase XIAP (Homo sapiens, UniProt P98170); experiment: XIAP antagonists, biochemical, IAP family, fluorescence polarization (AID 1018); type: functional
T4 sequence (P98170 whole entry): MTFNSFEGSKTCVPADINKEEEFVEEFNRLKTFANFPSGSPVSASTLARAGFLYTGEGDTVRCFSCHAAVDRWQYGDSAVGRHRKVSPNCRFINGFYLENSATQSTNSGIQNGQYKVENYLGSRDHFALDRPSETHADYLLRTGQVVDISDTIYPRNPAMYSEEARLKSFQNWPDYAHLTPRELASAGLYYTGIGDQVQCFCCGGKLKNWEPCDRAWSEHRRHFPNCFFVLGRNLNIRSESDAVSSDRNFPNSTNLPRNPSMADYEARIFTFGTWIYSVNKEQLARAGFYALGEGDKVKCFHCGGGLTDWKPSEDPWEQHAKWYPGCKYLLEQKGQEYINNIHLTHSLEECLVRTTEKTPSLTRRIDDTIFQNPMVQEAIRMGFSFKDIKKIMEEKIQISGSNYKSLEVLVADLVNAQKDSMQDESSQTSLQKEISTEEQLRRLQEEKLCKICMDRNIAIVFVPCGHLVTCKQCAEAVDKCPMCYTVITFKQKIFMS

[7] = biological target: T4, E3 ubiquitin-protein ligase XIAP; experiment: Counter Screen using XIAP-Bir3 for Chemical Antagonists of Bir1/2 domains of IAP-family anti-apoptotic proteins. [Related pubchem assays (depositor defined):AID1018, AID1449, AID1514, AID1638, AID1749, AID1750, AID488957, AID488963]
[8] = biological target: T5, Heat shock factor protein 1 (Mus musculus, UniProt P38532); experiment: inhibition of MG132-induced HSE-luciferase signal, confirmation, cell-based, NIH3T3, luminescence, dose retest (AID 2382); type: functional;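 note: NIH3T3 fibroblasts with HSF1-driven luciferase reporter stressed by proteasome inhibitor MG132; luminescence from HSF1-driven luciferase expression after 8 hours of MG132 stress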
T5 sequence (P38532 whole entry): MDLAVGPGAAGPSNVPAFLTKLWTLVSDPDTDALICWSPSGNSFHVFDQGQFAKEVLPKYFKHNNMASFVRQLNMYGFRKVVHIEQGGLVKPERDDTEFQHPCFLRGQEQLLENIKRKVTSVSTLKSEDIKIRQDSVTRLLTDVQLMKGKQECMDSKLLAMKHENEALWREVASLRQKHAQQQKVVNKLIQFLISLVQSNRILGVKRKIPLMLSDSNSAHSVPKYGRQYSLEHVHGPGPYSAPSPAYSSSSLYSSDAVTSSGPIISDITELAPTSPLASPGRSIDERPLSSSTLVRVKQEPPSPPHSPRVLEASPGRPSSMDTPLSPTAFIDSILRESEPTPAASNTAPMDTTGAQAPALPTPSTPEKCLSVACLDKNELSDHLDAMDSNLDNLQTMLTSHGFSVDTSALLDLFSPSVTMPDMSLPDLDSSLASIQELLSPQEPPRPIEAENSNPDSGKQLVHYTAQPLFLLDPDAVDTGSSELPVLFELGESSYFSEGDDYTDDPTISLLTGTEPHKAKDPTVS

[9] = biological target: T6, Voltage-gated N-type calcium channel alpha-1B subunit/Amyloid beta A4 precursor protein-binding family A member 1 (Homo sapiens, UniProt Q00975+Q02410); type: protein assay
T6 sequence (Q00975 whole entry): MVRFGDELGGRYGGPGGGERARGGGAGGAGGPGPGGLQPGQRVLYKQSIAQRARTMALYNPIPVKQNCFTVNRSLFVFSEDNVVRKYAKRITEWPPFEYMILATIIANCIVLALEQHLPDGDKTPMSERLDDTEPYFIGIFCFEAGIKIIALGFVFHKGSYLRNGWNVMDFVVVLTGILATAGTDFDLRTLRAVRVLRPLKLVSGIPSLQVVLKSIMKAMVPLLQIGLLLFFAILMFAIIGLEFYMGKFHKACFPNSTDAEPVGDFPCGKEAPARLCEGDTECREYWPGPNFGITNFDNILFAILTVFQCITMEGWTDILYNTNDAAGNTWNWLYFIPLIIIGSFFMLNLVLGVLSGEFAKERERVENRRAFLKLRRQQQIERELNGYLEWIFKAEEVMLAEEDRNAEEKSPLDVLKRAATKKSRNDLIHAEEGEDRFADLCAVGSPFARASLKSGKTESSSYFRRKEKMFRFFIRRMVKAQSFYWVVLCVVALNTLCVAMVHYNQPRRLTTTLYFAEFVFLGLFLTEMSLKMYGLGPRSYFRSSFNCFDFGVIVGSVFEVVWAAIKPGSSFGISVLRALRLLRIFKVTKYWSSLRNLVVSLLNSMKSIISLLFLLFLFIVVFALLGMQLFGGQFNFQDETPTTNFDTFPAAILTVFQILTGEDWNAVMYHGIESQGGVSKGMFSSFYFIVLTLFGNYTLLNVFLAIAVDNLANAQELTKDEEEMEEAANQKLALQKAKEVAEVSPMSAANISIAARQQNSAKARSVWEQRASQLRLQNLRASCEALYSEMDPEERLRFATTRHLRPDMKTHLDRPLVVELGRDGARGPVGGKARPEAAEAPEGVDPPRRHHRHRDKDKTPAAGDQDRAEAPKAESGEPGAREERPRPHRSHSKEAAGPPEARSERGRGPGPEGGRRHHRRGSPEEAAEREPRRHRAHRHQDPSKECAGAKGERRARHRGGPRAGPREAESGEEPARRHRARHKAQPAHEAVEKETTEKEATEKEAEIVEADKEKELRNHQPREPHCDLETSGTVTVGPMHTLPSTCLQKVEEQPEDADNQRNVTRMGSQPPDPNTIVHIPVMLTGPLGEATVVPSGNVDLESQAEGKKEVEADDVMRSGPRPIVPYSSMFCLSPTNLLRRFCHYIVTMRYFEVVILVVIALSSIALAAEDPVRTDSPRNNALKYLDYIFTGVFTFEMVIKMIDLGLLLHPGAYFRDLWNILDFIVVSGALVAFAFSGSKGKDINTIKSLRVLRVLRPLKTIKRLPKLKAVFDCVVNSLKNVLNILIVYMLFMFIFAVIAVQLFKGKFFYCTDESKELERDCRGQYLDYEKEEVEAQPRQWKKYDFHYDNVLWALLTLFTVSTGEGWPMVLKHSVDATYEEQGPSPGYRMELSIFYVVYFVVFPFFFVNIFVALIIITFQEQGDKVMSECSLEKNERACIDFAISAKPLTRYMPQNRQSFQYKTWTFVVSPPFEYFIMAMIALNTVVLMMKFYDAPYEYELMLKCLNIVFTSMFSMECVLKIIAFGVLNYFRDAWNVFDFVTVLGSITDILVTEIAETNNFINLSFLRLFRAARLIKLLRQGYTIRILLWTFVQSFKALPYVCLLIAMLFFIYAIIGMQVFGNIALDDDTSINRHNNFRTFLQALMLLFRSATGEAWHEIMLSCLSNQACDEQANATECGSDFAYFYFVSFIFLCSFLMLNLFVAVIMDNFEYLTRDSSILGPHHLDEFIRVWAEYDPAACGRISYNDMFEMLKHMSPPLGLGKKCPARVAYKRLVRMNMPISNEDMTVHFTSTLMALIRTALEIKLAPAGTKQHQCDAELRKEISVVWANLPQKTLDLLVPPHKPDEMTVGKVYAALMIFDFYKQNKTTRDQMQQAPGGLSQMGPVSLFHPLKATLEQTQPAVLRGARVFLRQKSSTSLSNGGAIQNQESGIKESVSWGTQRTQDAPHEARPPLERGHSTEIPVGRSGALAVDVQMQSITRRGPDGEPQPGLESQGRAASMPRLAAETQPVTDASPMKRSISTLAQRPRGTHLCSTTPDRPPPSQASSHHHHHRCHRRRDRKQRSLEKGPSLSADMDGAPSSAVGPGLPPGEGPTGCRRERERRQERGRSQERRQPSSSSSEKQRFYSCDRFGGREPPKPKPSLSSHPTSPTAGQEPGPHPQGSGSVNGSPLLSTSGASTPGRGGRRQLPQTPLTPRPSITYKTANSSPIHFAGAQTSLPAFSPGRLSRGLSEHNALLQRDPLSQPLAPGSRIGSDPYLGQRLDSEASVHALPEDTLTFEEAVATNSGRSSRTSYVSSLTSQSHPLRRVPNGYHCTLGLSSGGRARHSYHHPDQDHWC
T6 sequence (Q02410 whole entry): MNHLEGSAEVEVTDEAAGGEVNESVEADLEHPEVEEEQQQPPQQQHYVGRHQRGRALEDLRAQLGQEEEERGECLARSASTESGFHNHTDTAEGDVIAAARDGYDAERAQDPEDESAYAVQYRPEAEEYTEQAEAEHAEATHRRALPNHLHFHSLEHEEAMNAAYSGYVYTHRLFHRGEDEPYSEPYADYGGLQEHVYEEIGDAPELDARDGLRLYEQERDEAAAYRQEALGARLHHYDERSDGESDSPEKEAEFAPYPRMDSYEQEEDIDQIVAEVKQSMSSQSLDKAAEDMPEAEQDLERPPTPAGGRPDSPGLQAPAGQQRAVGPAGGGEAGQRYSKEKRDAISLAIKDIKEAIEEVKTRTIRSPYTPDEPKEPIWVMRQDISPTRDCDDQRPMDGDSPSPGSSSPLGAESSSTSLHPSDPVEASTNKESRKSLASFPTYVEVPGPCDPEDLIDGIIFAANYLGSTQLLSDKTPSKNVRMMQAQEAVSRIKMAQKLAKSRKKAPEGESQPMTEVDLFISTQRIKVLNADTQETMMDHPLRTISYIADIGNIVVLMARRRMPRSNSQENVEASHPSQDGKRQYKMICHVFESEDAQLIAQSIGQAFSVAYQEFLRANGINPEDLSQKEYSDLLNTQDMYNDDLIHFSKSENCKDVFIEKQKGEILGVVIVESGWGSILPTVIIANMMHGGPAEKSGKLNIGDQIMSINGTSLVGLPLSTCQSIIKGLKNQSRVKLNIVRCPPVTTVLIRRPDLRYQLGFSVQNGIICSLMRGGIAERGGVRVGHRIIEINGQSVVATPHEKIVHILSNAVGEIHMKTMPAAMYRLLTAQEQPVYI

[10] = Luminescence Cell-Based Dose Retest to Confirm Inhibitors of Cancer Stem Cells. [Related pubchem assays (depositor defined):AID2717, AID2721]; type: functional; conditions: Homo sapiens
[11] = biological target: T6, Voltage-gated N-type calcium channel alpha-1B subunit/Amyloid beta A4 precursor protein-binding family A member 1; type: protein assay; remark: listed apart in the source
[12] = insulin promoter down-regulators in MIN6 cells, imaging, high-content screening, mouse beta cells (AID 1628); type: functional
[13] = cytotoxicity in MIN6 insulinoma cells, dose response, cytotoxicity control, cell-based, mouse insulinoma (AID 2122); type: functional;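 note: confirmatory high-throughput counterscreen run to flag cytotoxic compounds; mouse MIN-6 beta cells carrying an insulin promoter eGFP reporter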
[14] = biological target: T7, Mannose-6-phosphate isomerase (Homo sapiens, UniProt P34949); experiment: PMI enzyme inhibitors, confirmation, biochemical, fluorescence intensity (AID 1535)
T7 sequence (P34949 whole entry): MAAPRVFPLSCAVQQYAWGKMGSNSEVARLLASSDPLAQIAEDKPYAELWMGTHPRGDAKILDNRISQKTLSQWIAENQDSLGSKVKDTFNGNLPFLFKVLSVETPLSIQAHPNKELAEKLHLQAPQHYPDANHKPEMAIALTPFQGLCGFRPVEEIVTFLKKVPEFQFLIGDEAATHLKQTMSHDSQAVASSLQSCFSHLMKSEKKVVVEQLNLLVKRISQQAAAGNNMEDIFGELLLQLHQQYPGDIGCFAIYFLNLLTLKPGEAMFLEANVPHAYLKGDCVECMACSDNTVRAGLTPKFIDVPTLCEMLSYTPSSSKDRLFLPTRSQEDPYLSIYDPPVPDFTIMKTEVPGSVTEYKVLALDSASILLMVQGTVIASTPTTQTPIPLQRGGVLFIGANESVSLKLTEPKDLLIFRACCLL

[15] = biological target: T8, Phosphoethanolamine/phosphocholine phosphatase (Homo sapiens, UniProt Q8TCT1); experiment: SAR assay for compounds that inhibit PHOSPHO1. [Related pubchem assays (depositor defined):AID1545, AID1565, AID1574]
T8 sequence (Q8TCT1 whole entry): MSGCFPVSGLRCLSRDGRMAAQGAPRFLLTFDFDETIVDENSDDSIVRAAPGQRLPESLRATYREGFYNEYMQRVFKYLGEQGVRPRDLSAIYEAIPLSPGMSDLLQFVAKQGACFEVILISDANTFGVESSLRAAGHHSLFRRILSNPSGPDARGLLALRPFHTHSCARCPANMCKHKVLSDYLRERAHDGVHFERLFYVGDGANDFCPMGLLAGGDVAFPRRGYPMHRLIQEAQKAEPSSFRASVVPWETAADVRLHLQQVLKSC

Phosphomannomutase 2 = biological target: T9, Phosphomannomutase 2 (Homo sapiens, UniProt O15305); experiment: Counter screen SAR assay for PMM2 inhibitors via a fluorescence intensity assay. [Related pubchem assays (depositor defined):AID1545, AID1574]
T9 sequence (O15305 whole entry): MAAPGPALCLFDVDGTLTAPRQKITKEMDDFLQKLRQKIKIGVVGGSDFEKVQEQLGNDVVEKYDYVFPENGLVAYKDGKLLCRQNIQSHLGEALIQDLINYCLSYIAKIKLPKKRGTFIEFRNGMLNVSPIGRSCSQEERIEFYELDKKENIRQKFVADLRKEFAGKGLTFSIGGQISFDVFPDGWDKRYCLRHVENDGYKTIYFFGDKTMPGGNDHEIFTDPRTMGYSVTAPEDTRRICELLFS

[16] = Luminescence Cell-Based Dose Confirmation HTS to Identify Activators of 5'UTR Stem-Loop Driven Alpha-Synuclein mRNA Translation in H4 Neuroglioblastoma Cells. [Related pubchem assays: 1829 (Project Summary), 1814 (Primary HTS)]; type: functional
H4 = experiment: Luminescence Cell-Based Dose Response HTS to Identify Activators of 5'UTR Stem-Loop Driven Prion Protein mRNA Translation in H4 Neuroglioblastoma Cells. [Related pubchem assays: 1829 (Project Summary), 1814 (Primary HTS)]; type: functional; conditions: Homo sapiens
[17] = Luminescence Cell-Based Dose Response HTS to Identify Activators of Luciferase Translation or Activity in H4 […] Cells. [Related pubchem assays: 1829 (Project Summary), 1814 (Primary HTS)]; type: functional

Compound: Nc1cccc2cc(S(=O)(=O)O)ccc12
- IC50 (Protein skinhead-1): > 100 µM (inactive)
- AC50 (ORF 73): 108 µM (active)

Compound: O=C(c1ccccc1)c1cc([N+](=O)[O-])ccc1N1CCOCC1
- IC50 [1]: > 80 µM (inactive)

Compound: CCC(=O)Oc1ccc2c(c1)O/C(=C\c1ccco1)C2=O
- EC50 [2]: > 99 µM (inactive)
- AC50 (ORF 73): 14.1 µM (active)
- EC50 [3]: 31.5 µM (inactive)

Compound: COC(=O)c1ccc(Sc2nnnn2-c2ccccc2)c([N+](=O)[O-])c1
- CC50 [4]: 20.5 µM (active)
- CC50 [5]: > 20 µM (active)
- IC50 (cells): 14.3 µM (active)

Compound: CC(=O)c1cnc(-c2ccccc2)s1
- IC50 [6]: > 100 µM (not active)
- IC50 [7]: > 100 µM (inactive)

Compound: CNC(=O)C1C(S)=NC(N)=C(C#N)C1c1ccccc1 (configuration not stated)
- EC50 [8]: 19 µM (active)
- IC50 [9]: > 50 µM (inactive)
- AC50 [10]: > 195 µM (inactive)
- IC50 [11]: 1.68 µM (active)

Compound: CCC(=O)OC1c2ccccc2C(=O)N1Cc1ccccc1 (configuration not stated)
- IC50 [6]: > 100 µM (not active)
- IC50 [7]: > 100 µM (inactive)

Compound: CC1CCCC(NC(=O)c2cn(C)c3ccc(S(=O)(=O)N4CCCC4)cc3c2=O)C1C (configuration not stated)
- IC50 [6]: > 100 µM (not active)
- IC50 [7]: > 100 µM (inactive)

Compound: Cc1cc(C(=O)CSc2nc3cc(Cl)ccc3[nH]2)c(C)n1CC1CCCO1 (configuration not stated)
- IC50 [12]: 2.74 µM (active)
- IC50 [13]: 2.99 µM (active)

Compound: Cc1nc([N+](=O)[O-])c(Br)n1CC(=O)c1ccccc1
- CC50 [4]: 40 µM (active)
- CC50 [5]: 18.6 µM (active)
- IC50 (cells): 10.8 µM (active)

Compound: O=c1c2ccccc2sn1-c1ccc(S(=O)(=O)N2CCOCC2)cc1
- IC50 [14]: > 50 µM (inactive)
- IC50 [15]: 0.545 µM (active)
- IC50 (Phosphomannomutase 2): > 100 µM (inactive)

Compound: [N-]=[N+]=Nc1cc([N+](=O)[O-])cc2sn(-c3ccccc3)c(=O)c12
- IC50 [14]: > 50 µM (inactive)
- IC50 [15]: 0.498 µM (active)
- IC50 (Phosphomannomutase 2): 96.4 µM (active)

Compound: C=CCOC(=O)/C=C/C(=O)NC(N)=O
- IC50 [9]: 2.95 µM (active)
- IC50 [11]: 7.61 µM (active)

Compound: NS(=O)(=O)c1ccc(N/N=C/c2cn(-c3ccccc3)nc2-c2ccccc2)c([N+](=O)[O-])c1
- EC50 [16]: > 120 µM (not active)
- IC50 [12]: 1.05 µM (active)
- IC50 [13]: 3.46 µM (active)
- EC50 (H4): > 120 µM (not active)
- EC50 [17]: > 60 µM (not active)
